target: T1, Met kinase domain (GST fusion protein) (Homo sapiens, UniProt P08581); assay: Met transphosphorylation assay (ELISA, poly(glu-tyr) substrate); type: biochemical; details: Table 2; read-out: Met IC50;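 also: Cell-free ELISA with plate-bound poly(Glu:Tyr 4:1) phosphorylated by GST-fused Met kinase domain plus ATP and Mn2+, phosphotyrosine detected by anti-phosphotyrosine antibody with HRP and ABTS read-out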
T1 construct: Purified GST fusion protein containing the Met kinase domain
T1 sequence (P08581 1078-1345 limits assumed): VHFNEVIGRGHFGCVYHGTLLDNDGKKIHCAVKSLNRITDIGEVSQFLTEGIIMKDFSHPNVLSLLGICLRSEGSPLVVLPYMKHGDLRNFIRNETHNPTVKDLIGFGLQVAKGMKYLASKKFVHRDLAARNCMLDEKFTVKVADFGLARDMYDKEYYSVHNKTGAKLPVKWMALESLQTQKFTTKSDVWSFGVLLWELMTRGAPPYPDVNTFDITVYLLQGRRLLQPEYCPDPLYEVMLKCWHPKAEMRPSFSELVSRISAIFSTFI
Description: General procedure is as follows: a compound is introduced to cells expressing the test kinase, either naturally or recombinantly, for a selected period of time after which, if the test kinase is a receptor, a ligand known to activate the receptor is added. The cells are lysed and the lysate is transferred to the wells of an ELISA plate previously coated with a specific antibody recognizing the substrate of the enzymatic phosphorylation reaction. Non-substrate components of the cell lysate are washed away and the amount of phosphorylation on the substrate is detected with an antibody specifically recognizing phosphotyrosine compared with control cells that were not contacted with a test compound.
Met Transphosphorylation Assay
This assay is used to measure phosphotyrosine levels on a poly(glutamic acid:tyrosine, 4:1) substrate as a means for identifying agonists/antagonists of met transphosphorylation of the substrate.
PBS, Gibco Catalog # 450-1300EB • 4. 50 mM HEPES • 5. […] Purified GST fusion protein containing the Met kinase domain, SUGEN, Inc. • 7. TBST Buffer. • 8. 10% aqueous (MilliQue H2O) DMSO. • 9. […] 2× Kinase Dilution Buffer: for 100 mL, mix 10 mL 1M HEPESat pH 7.5 with 0.4 mL 5% BSA/PBS, 0.2 mL 0.1 M sodium orthovanadate and 1 mL 5M sodium chloride in 88.4 mL dH2O. • 11. 4× ATP Reaction Mixture: for 10 mL, mix 0.4 mL 1 M manganese chloride and 0.02 mL 0.1 M ATP in 9.56 mL dH2O. • 12. 4× Negative Controls Mixture: for 10 mL, mix 0.4 mL 1 M manganese chloride in 9.6 mL dH2O. • 13. […] 500 mM EDTA. • 15. Antibody Dilution Buffer: for 100 mL, mix 10 mL 5% BSA/PBS, 0.5 mL 5% Carnation® Instant Milk in PBS and 0.1 mL 0.1 M sodium orthovanadate in 88.4 mL TBST. • 16. Rabbit polyclonal antophosphotyrosine antibody, SUGEN, Inc. • 17. Goat anti-rabbit horseradish peroxidase conjugated antibody, Biosource, Inc. • 18. ABTS Solution: for 1 L, mix 19.21 g citric acid, 35.49 g Na2HPO4 and 500 mg ABTS with sufficient dH2O to make 1 L. • 19. ABTS/H2O2: mix 15 mL ABST solution with 2μL H2O2 five minutes before use. • 20. 0.2 M HCl Procedure: • 1. Coat ELISA plates with 2 μg Poly(Glu-Tyr) in 100 μL PBS, hold-overnight at 4° C. • 2. Block plate with 150 μL of 5% BSA/PBS for 60 min. • 3. Wash plate twice with PBS then once with 50 mM Hepes buffer pH 7.4. • 4. Add 50 μl of the diluted kinase to all wells. (Purified kinase is diluted with Kinase Dilution Buffer. Final concentration should be 10 ng/well.) • 5. Add 25 μL of the test compound (in 4% DMSO) or DMSO alone (4% in dH2O) for controls to plate. • 6. Incubate the kinase/compound mixture for 15 minutes. • 7. Add 25 μL of 40 mM MnCl2 to the negative control wells. • 8. Add 25 μL ATP/MnCl2 mixture to the all other wells (except the negative controls). Incubate for 5 min. • 9. Add 25 μL 500 mM EDTA to stop reaction. • 10. Wash plate 3× with TBST. • 11. Add 100 μL rabbit polyclonal anti-Ptyr diluted 1:10,000 in Antibody Dilution Buffer to each well. Incubate, with shaking, at room temperature for one hour. • 12. Wash plate 3× with TBST. • 13. […] Add 100 μL per well and incubate at room temperature, with shaking, for one hour. • 14. Wash plate 1× with PBS. • 15. Add 100 μl of ABTS/H2O2 solution to each well. • 16. If necessary, stop the development reaction with the addition of 100 μl of 0.2M HCl per well. • 17.

In order of falling IC50:
1. Nc1ncc(-c2cccc(N3CCCC3)c2)cc1OCc1c(F)ccc(F)c1Cl [Example I-268, 3-(2-Chloro-3,6-difluoro-benzyloxy)-5-(3-pyrrolidin-1-yl-phenyl)-pyridin-2-ylamine; compound with trifluoro-acetic acid]  4000 nM
2. Nc1ncc(-c2cccc(NS(=O)(=O)CCN3CC[C@@H](CO)C3)c2)cc1OCc1c(F)ccc(F)c1Cl [Example I-261, 2-[(3R)-3-Hydroxymethyl-pyrrolidin-1-yl]-ethanesulfonic acid {3-[6-amino-5-(2-chloro-3,6-difluoro-benzyloxy)-pyridin-3-yl]-phenyl}-amide]  1700 nM
3. CCN(CC)CCS(=O)(=O)Nc1cccc(-c2cnc(N)c(OCc3c(F)ccc(F)c3Cl)c2)c1 [Example I-258, 2-Diethylamino-ethanesulfonic acid {3-[6-amino-5-(2-chloro-3,6-difluoro-benzyloxy)-pyridin-3-yl]-phenyl}amide]  1670 nM
4. Nc1ncc(-c2cccc(NS(=O)(=O)CCN3CCOCC3)c2)cc1OCc1c(F)ccc(F)c1Cl [Example I-257, 2-Morpholin-4-yl-ethanesulfonic acid {3-[6-amino-5-(2-chloro-3,6-difluoro-benzyloxy)-pyridin-3-yl]-phenyl}-amide]  1640 nM
5. Nc1ncc(-c2cccc(NS(=O)(=O)CCN3CCCCC3)c2)cc1OCc1c(F)ccc(F)c1Cl [Example I-260, 2-Pipendin-1-yl-ethanesulfonic acid {3-[6-amino-5-(2-chloro-3,6-difluoro-benzyloxy)-pyridin-3-yl]-phenyl}-amide]  1630 nM
6. Nc1ncc(-c2cccc(NS(=O)(=O)CCN3CCC(O)CC3)c2)cc1OCc1c(F)ccc(F)c1Cl [Example I-262, 2-(4-Hydroxy-piperidin-1-yl)-ethanesulfonic acid {3-[6-amino-5-(2-chloro-3,6-difluoro-benzyloxy)-pyridin-3-yl]-phenyl}-amide]  1500 nM
7. Nc1ncc(-c2cccc(NS(=O)(=O)CCN3CCN(C(=O)CO)CC3)c2)cc1OCc1c(F)ccc(F)c1Cl [Example I-263, 2-[4-(2-Hydroxy-acetyl)-piperazin-1-yl]-ethanesulfonic acid {3-[6-amino-5-(2-chloro-3,6-difluoro-benzyloxy)-pyridin-3-yl]-phenyl}-amide]  1140 nM
8. Nc1ncc(-c2cccc(NS(=O)(=O)CCN3CC[C@@H](O)C3)c2)cc1OCc1c(F)ccc(F)c1Cl [Example I-264, 2-[(3R)-3-Hydroxy-pyrrolidin-1-yl]-ethanesulfonic acid {3-[6-amino-5-(2-chloro-3,6-difluoro-benzyloxy)-pyridin-3-yl]-phenyl}-amide]  1100 nM
9. Nc1ncc(-c2cccc(NS(=O)(=O)CCNCC3CC3)c2)cc1OCc1c(F)ccc(F)c1Cl [Example I-265, 2-(Cyclopropylmethyl-amino)-ethanesulfonic acid {3-[6-amino-5-(2-chloro-3,6-difluoro-benzyloxy)-pyridin-3-yl]-phenyl}-amide]  1000 nM
10. Nc1ncc(-c2cccc(NS(=O)(=O)CCNC3CC3)c2)cc1OCc1c(F)ccc(F)c1Cl [Example I-266, 2-Cyclopropylamino-ethanesulfonic acid {3-[6-amino-5-(2-chloro-3,6-difluoro-benzyloxy)-pyridin-3-yl]-phenyl}-amide]  900 nM
11. CN(C)CCS(=O)(=O)Nc1cccc(-c2cnc(N)c(OCc3c(F)ccc(F)c3Cl)c2)c1 [Example I-259, 2-Dimethylamino-ethanesulfonic acid {3-[6-amino-5-(2-chloro-3,6-difluoro-benzyloxy)-pyridin-3-yl]-phenyl}-amide]  500 nM
12. CC(Oc1cc(-c2ccc(NS(=O)(=O)CCN3CCCCC3)cc2)cnc1N)c1c(F)ccc(F)c1Cl (stereo not drawn) [Example I-286, 2-Piperidin-1-yl-ethanesulfonic acid (4-{6-amino-5-[1-(2-cloro-3,6-difluoro-phenyl)-ethoxy]-pyridin-3-yl}-phenyl)-amide]  180 nM
13. CC(Oc1cc(-c2ccc(C(=O)N3CCC(N)CC3)cc2)cnc1N)c1c(Cl)ccc(F)c1Cl (stereo not drawn) [Example I-305, (4-{6-Amino-5-[1-(2,6-dichloro-3-fluoro-phenyl)-ethoxy]-pyridin-3-yl}-phenyl)-(4-amino-piperidin-1-yl)-methanone]  180 nM
14. CC(Oc1cc(-c2ccc(NS(=O)(=O)CCNC3CC3)cc2)cnc1N)c1c(Cl)ccc(F)c1Cl (stereo not drawn) [Example I-297, 2-Cyclopropylamino-ethanesulfonic acid (4-{6-amino-5-[1-(2,6-dichloro-3-fluoro-phenyl)-ethoxy]-pyridin-3-yl}-phenyl)-amide]  164 nM
15. CC(Oc1cc(-c2ccc(NS(=O)(=O)CCNC3CC3)cc2)cnc1N)c1c(F)ccc(F)c1Cl (stereo not drawn) [Example I-289, 2-Cyclopropylamino-ethanesulfonic acid (4-{6-amino-5-[1-(2-chloro-3,6-difluoro-phenyl)-ethoxy]-pyridin-3-yl}-phenyl)-amide]  160 nM
16. CC(Oc1cc(-c2ccc(NS(=O)(=O)CCN(C)C)cc2)cnc1N)c1c(F)ccc(F)c1Cl (stereo not drawn) [Example I-288]  150 nM
17. CC(Oc1cc(-c2ccc(NS(=O)(=O)CCN3CCC(O)CC3)cc2)cnc1N)c1c(F)ccc(F)c1Cl (stereo not drawn) [Example I-287, 2-(4-Hydroxy-piperidin-1-yl)-ethanesulfonic acid (4-{6-amino-5-[1-(2-chloro-3,6-difluoro-phenyl)-ethoxy]-pyridin-3-yl}-phenyl)-amide]  140 nM
18. CC(Oc1cc(-c2cccc(C(=O)N3CCC[C@@H]3CN3CCCC3)c2)cnc1N)c1c(Cl)ccc(F)c1Cl (stereo partly drawn) [Example I-318, (3-{6-Amino-5-[1-(2,6-dichloro-3-fluoro-phenyl)-ethoxy]-pyridin-3-yl}-phenyl)-((R)-2-pyrrolidin-1-ylmethyl-pyrrolidin-1-yl)-methanone]  130 nM
19. CC(Oc1cc(-c2ccc(C(=O)N3CCN(C)CC3)cc2)cnc1N)c1c(Cl)ccc(F)c1Cl (stereo not drawn) [Example I-295, (4-{6-Amino-5-[1-(2,6-dichloro-3-fluoro-phenyl)-ethoxy]-pyridin-3-yl}-phenyl)-(4-methyl-piperazin-1-yl)-methanone]  79 nM
20. CC(Oc1cc(-c2ccc(C(=O)N3CC[C@@H](N)C3)cc2)cnc1N)c1c(Cl)ccc(F)c1Cl (stereo partly drawn) [Example I-304, (4-{6-Amino-5-[1-(2,6-dichloro-3-fluoro-phenyl)-ethoxy]-pyridin-3-yl}-phenyl)-((R)-3-amino-pyrrolidin-1-yl)-methanone]  72 nM
21. CC(Oc1cc(-c2ccc(C(=O)NCCN3CCOCC3)cc2)cnc1N)c1c(Cl)ccc(F)c1Cl (stereo not drawn) [Example I-302, 4-{6-Amino-5-[1-(2,6-dichloro-3-fluoro-phenyl)-ethoxy]-pyridin-3-yl}-N-(2-morpholin-4-yl-ethyl)-benzamide]  71 nM
22. CC(Oc1cc(-c2cccc(C(=O)NC3CCN(C)CC3)c2)cnc1N)c1c(Cl)ccc(F)c1Cl (stereo not drawn) [Example I-313, 3-{6-Amino-5-[1-(2,6-dichloro-3-fluoro-phenyl)-ethoxy]-pyridin-3-yl}-N-(1-methyl-piperidin-4-yl) benzamide]  69 nM
23. CC(=O)N1CCN(CCNC(=O)c2cccc(-c3cnc(N)c(OC(C)c4c(Cl)ccc(F)c4Cl)c3)c2)CC1 (stereo not drawn) [Example I-315, N-[2-(4-Acetyl-piperazin-1-yl)-ethyl]-3-{6-amino-5-[1-(2,6-dichloro-3-fluoro-phenyl)-ethoxy]-pyridin-3-yl}-benzamide]  69 nM
24. CC(Oc1cc(-c2ccc(C(=O)NCCCN3CCCC3)cc2)cnc1N)c1c(Cl)ccc(F)c1Cl (stereo not drawn) [Example I-301, 4-{6-Amino-5-[1-(2,6-dichloro-3-fluoro-phenyl)-ethoxy]-pyridin-3-yl}-N-(3-pyrrolidin-1-yl-propyl)-benzamide]  64 nM
25. CC(Oc1cc(-c2ccc(NS(=O)(=O)CCN3CC[C@@H](O)C3)cc2)cnc1N)c1c(Cl)ccc(F)c1Cl (stereo partly drawn) [Example I-299]  62 nM
26. CC(Oc1cc(-c2cccc(C(=O)N3CCN(C)CC3)c2)cnc1N)c1c(Cl)ccc(F)c1Cl (stereo not drawn) [Example I-312]  62 nM
27. CC(Oc1cc(-c2cccc(C(=O)N3CCC[C@H]3CN3CCCC3)c2)cnc1N)c1c(Cl)ccc(F)c1Cl (stereo partly drawn) [Example I-314, (3-{6-Amino-5-[1-(2,6-dichloro-3-fluoro-phenyl)-ethoxy]-pyridin-3-yl}-phenyl)-((S)-2-pyrrolidin-1-ylmethyl-pyrrolidin-1-yl)-methanone]  60 nM
28. CC(Oc1cc(-c2cccc(C(=O)N3CC[C@@H](N)C3)c2)cnc1N)c1c(Cl)ccc(F)c1Cl (stereo partly drawn) [Example I-293]  51 nM
29. CC(Oc1cc(-c2cccc(C(=O)N3CC[C@H](N)C3)c2)cnc1N)c1c(Cl)ccc(F)c1Cl (stereo partly drawn) [Example I-316, (3-{6-Amino-5-[1-(2,6-dichloro-3-fluoro-phenyl)-ethoxy]-pyridin-3-yl}-phenyl)-((S)-3-amino-pyrrolidin-1-yl)-methanone]  48 nM
30. CCN(CC)CCNC(=O)c1ccc(-c2cnc(N)c(OC(C)c3c(Cl)ccc(F)c3Cl)c2)cc1 (stereo not drawn) [Example I-309, 4-{6-Amino-5-[1-(2,6-dichloro-3-fluoro-phenyl)-ethoxy]-pyridin-3-yl}-N-(2-diethylamino-ethyl)-benzamide]  40 nM
31. CC(Oc1cc(-c2ccc(C(=O)N3CCC[C@@H]3CO)cc2)cnc1N)c1c(Cl)ccc(F)c1Cl (stereo partly drawn) [Example I-308, (4-{6-Amino-5-[1-(2,6-dichloro-3-fluoro-phenyl)-ethoxy]-pyridin-3-yl}-phenyl)-((R)-2-hydroxymethyl-pyrrolidin-1-yl)-methanone]  33 nM
32. CC(Oc1cc(-c2ccc(C(=O)N3CC[C@H](O)C3)cc2)cnc1N)c1c(Cl)ccc(F)c1Cl (stereo partly drawn) [Example I-306, (4-{6-Amino-5-[1-(2,6-dichloro-3-fluoro-phenyl)-ethoxy]-pyridin-3-yl}-phenyl)-((S)-3-hydroxy-pyrrolidin-1-yl)-methanone]  24 nM
33. CC(Oc1cc(-c2ccc(C(=O)N3CC[C@@H](O)C3)cc2)cnc1N)c1c(Cl)ccc(F)c1Cl (stereo partly drawn) [Example I-307, (4-{6-Amino-5-[1-(2,6-dichloro-3-fluoro-phenyl)-ethoxy]-pyridin-3-yl}-phenyl)-((R)-3-hydroxy-pyrrolidin-1-yl)-methanone]  22 nM
